pIC50: −log10 of the molar value.
Each compound was assayed against SUV420H1 enzyme (Homo sapiens, UniProt Q4FZB7) (assay: TR-FRET SAH SUV420H1 enzyme inhibition assay). Details: Histone Peptide H4(8-30)me1 and SAM, overnight at room temp, TR-FRET detection of SAH, read-out: TR-FRET SAH_SUV420H1 IC50.
Assay type: biochemical
How it was run: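 SUV420H1 (90 nM) preincubated 30 min with compound (3-fold dilutions, 50 to 0.00075 μM), then H4(8-30)me1 peptide 5 nM and SAM 4 nM added, overnight at room temp. SAH product detected by TR-FRET with Tb anti-SAH antibody and Oregon Green-SAH in RIPA buffer, 4 h; IC50 from Hill fit, asymptotes fixed 0-100%.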

Chain of SUV420H1 enzyme (Q4FZB7 whole entry): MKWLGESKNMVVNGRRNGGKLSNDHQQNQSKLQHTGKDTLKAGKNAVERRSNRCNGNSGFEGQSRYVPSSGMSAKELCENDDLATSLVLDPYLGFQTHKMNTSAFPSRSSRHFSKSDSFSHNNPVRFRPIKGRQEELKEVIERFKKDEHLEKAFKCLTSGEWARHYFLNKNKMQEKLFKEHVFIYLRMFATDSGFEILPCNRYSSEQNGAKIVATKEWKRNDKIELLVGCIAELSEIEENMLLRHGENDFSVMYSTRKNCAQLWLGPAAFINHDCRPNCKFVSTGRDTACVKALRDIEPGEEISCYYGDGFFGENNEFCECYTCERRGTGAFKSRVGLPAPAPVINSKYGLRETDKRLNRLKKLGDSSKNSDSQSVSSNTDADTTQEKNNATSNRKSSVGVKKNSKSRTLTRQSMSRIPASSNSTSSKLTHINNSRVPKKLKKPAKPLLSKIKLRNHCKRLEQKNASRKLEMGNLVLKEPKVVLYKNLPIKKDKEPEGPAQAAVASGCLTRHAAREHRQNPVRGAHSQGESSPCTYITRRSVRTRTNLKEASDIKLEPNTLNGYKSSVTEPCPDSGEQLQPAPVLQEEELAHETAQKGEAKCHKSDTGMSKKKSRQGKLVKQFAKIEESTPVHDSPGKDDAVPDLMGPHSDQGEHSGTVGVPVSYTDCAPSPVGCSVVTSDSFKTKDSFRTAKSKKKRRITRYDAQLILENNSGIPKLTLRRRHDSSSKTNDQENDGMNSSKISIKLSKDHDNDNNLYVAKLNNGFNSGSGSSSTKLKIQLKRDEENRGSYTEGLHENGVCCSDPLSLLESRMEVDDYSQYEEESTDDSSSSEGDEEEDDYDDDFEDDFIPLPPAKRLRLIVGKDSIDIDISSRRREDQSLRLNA

`COC(=O)c1ccc(-c2cc(Cn3cnc4c(N)ncnc43)c3[nH]c(CN)cc3c2)cc1` [Example 44, methyl 4-{2-(aminomethyl)-7-[(6-amino-9H-purin-9-yl)methyl]-1H-indol-5-yl}benzoate] and `NCc1cc2cc(-c3ccc(CO)cc3)cc(Cn3cnc4c(N)ncnc43)c2[nH]1` [Example 33, (4-{2-(aminomethyl)-7-[(6-amino-9H-purin-9-yl)methyl]-1H-indol-5-yl}phenyl)methanol] are within 0.2 log units of each other in pIC50: 6.25 for the first, 6.28 for the second.

First: CCNc1ccccc1C(=O)NCc1cc2cc(Cl)cc(Cn3cnc4c(N)ncnc43)c2[nH]1 [Example 310, N-({7-[(6-amino-9H-purin-9-yl)methyl]-5-chloro-1H-indol-2-yl}methyl)-2-(ethylamino)benzamide]
Second: Nc1ncnc2c1ncn2Cc1cc(Cl)cc2cc(CNC(=O)Cc3ccccc3Cl)[nH]c12 [Example 253, N-({7-[(6-amino-9H-purin-9-yl)methyl]-5-chloro-1H-indol-2-yl}methyl)-2-(2-chlorophenyl)acetamide]
The pIC50 of the first is 0.44 log units higher: 4.88 for the first, 4.44 for the second.

Compared with `Cc1ccsc1C(=O)NCc1cc2cc(Cl)cc(Cn3cnc4c(N)ncnc43)c2[nH]1` [Example 157, N-({7-[(6-amino-9H-purin-9-yl)methyl]-5-chloro-1H-indol-2-yl}methyl)-3-methylthiophene-2-carboxamide], `Nc1ncnc2c1ncn2Cc1cc(Cl)cc2cc(CNC(=O)c3cnsc3)[nH]c12` [Example 139, N-({7-[(6-amino-9H-purin-9-yl)methyl]-5-chloro-1H-indol-2-yl}methyl)-1,2-thiazole-4-carboxamide] is 0.43 log units higher in pIC50: 5.69 for the first, 6.12 for the second. The second is the more potent here.

`Cc1cc(C#N)ccc1C(=O)NCc1cc2cc(C3=CCC(F)(F)CC3)cc(Cn3cnc4c(N)ncnc43)c2[nH]1` [Example 306, N-({7-[(6-amino-9H-purin-9-yl)methyl]-5-(4,4-difluorocyclohex-1-en-1-yl)-1H-indol-2-yl}methyl)-4-cyano-2-methylbenzamide] and `CC(=O)N1CCC=C(c2cc(Cn3cnc4c(N)ncnc43)c3[nH]c(CNC(=O)c4ccc(C#N)cc4Cl)cc3c2)C1` [Example 280] are within 0.2 log units of each other in pIC50: 7.25 for the first, 7.38 for the second.

`Nc1ncnc2c1ncn2Cc1cc(Cl)cc2cc(CNCc3c(F)cccc3F)[nH]c12` [Example 219, 9-[(5-chloro-2-{[(2,6-difluorobenzyl)amino]methyl}-1H-indol-7-yl)methyl]-9H-purin-6-amine] and `Nc1ncnc2c1ncn2Cc1cc(Cl)cc2cc(CNC(=O)c3c(F)cccc3F)[nH]c12` [Example 228, N-({7-[(6-amino-9H-purin-9-yl)methyl]-5-chloro-1H-indol-2-yl}methyl)-2,6-difluorobenzamide] are within 0.2 log units of each other in pIC50: 5.50 for the first, 5.62 for the second.

Going from `Nc1ncnc2c1ncn2Cc1cc(Cl)cc2cc(CNC(=O)CC3CCCCC3)[nH]c12` [Example 133, N-({7-[(6-amino-9H-purin-9-yl)methyl]-5-chloro-1H-indol-2-yl}methyl)-2-cyclohexylacetamide] to `CCCC(=O)NCc1cc2cc(Cl)cc(Cn3cnc4c(N)ncnc43)c2[nH]1` [Example 98, N-({7-[(6-amino-9H-purin-9-yl)methyl]-5-chloro-1H-indol-2-yl}methyl)butanamide], the pIC50 rises from 4.50 to 4.93 (0.43 log units). The second is the more potent here.

Going from `CNC(=O)CCc1c[nH]c2c(Cn3cnc4c(N)ncnc43)cccc12` [Example 2, 3-{7-[(6-amino-9H-purin-9-yl)methyl]-1H-indol-3-yl}-N-methylpropanamide] to `NCc1cc2c(-c3cccc(C(N)=O)c3)ccc(Cn3cnc4c(N)ncnc43)c2[nH]1` [Example 84, 3-{2-(aminomethyl)-7-[(6-amino-9H-purin-9-yl)methyl]-1H-indol-4-yl}benzamide], the pIC50 rises from 4.43 to 6.24 (1.81 log units). The second is the more potent here.

Compared with `COCCC(=O)NCc1cc2cc(Cl)cc(Cn3cnc4c(N)ncnc43)c2[nH]1` [Example 100, N-({7-[(6-amino-9H-purin-9-yl)methyl]-5-chloro-1H-indol-2-yl}methyl)-3-methoxypropanamide], `CC(C)(C)CC(=O)NCc1cc2cc(Cl)cc(Cn3cnc4c(N)ncnc43)c2[nH]1` [Example 104, N-({7-[(6-amino-9H-purin-9-yl)methyl]-5-chloro-1H-indol-2-yl}methyl)-3,3-dimethylbutanamide] is 0.22 log units lower in pIC50: 4.96 for the first, 4.74 for the second. The first is the more potent here.

First: NCc1cc2cc(C3=CCCC3)cc(Cn3cnc4c(N)ncnc43)c2[nH]1 [Example 11, 9-{[2-(aminomethyl)-5-(cyclopent-1-en-1-yl)-1H-indol-7-yl]methyl}-9H-purin-6-amine]
Second: NCc1cc2cc(-c3ccccc3)cc(Cn3cnc4c(N)ncnc43)c2[nH]1 [Example 22, 9-{[2-(aminomethyl)-5-phenyl-1H-indol-7-yl]methyl}-9H-purin-6-amine]
The pIC50 of the first is 0.41 log units higher: 6.75 for the first, 6.34 for the second. The first is the more potent here.

First: COc1cc(C(=O)NCc2cc3cc(Cl)cc(Cn4cnc5c(N)ncnc54)c3[nH]2)ccc1C [Example 300, N-({7-[(6-amino-9H-purin-9-yl)methyl]-5-chloro-1H-indol-2-yl}methyl)-3-methoxy-4-methylbenzamide]
Second: Cc1[nH]c2cc(C(=O)NCc3cc4cc(Cl)cc(Cn5cnc6c(N)ncnc65)c4[nH]3)ccc2c1C [Example 374, N-({7-[(6-amino-9H-purin-9-yl)methyl]-5-chloro-1H-indol-2-yl}methyl)-2,3-dimethyl-1H-indole-6-carboxamide]
The pIC50 of the first is 1.20 log units lower: 5.38 for the first, 6.58 for the second.

First: CN(C)CCNC(=O)c1ccc(-c2cc(Cn3cnc4c(N)ncnc43)c3[nH]c(CN)cc3c2)cc1 [Example 49, 4-{2-(aminomethyl)-7-[(6-amino-9H-purin-9-yl)methyl]-1H-indol-5-yl}-N-[2-(dimethylamino)ethyl]benzamide]
Second: CN(C)c1ccc(C(=O)NCc2cc3cc(Cl)cc(Cn4cnc5c(N)ncnc54)c3[nH]2)cc1 [Example 302, N-({7-[(6-amino-9H-purin-9-yl)methyl]-5-chloro-1H-indol-2-yl}methyl)-4-(dimethylamino)benzamide]
The pIC50 of the first is higher: 6.71 for the first, less than 4.30 for the second.

Going from `Cc1noc(C)c1C(=O)NCc1cc2cc(-c3cccc(N4CCOCC4)c3)cc(Cn3cnc4c(N)ncnc43)c2[nH]1` [Example 179, N-({7-[(6-amino-9H-purin-9-yl)methyl]-5-[3-(morpholin-4-yl)phenyl]-1H-indol-2-yl}methyl)-3,5-dimethyl-1,2-oxazole-4-carboxamide] to `CC(=O)N1CCC=C(c2cc(Cn3cnc4c(N)ncnc43)c3[nH]c(CNC(=O)c4cc(C)nnc4C)cc3c2)C1` [Example 238], the pIC50 rises from 6.44 to 7.34 (0.90 log units).

First: Nc1ncnc2c1ncn2Cc1cc(Cl)cc2cc(CNCc3c(Cl)cccc3Cl)[nH]c12 [Example 211, 9-[(5-chloro-2-{[(2,6-dichlorobenzyl)amino]methyl}-1H-indol-7-yl)methyl]-9H-purin-6-amine]
Second: COc1ccccc1CNC(=O)NCc1cc2cc(Cl)cc(Cn3cnc4c(N)ncnc43)c2[nH]1 [Example 312, 1-({7-[(6-amino-9H-purin-9-yl)methyl]-5-chloro-1H-indol-2-yl}methyl)-3-(2-methoxybenzyl)urea]
The pIC50 of the first is higher: 5.03 for the first, less than 4.30 for the second.

`CN1CCN(Cc2ccc(-c3cc(Cn4cnc5c(N)ncnc54)c4[nH]c(CN)cc4c3)cc2)CC1` [Example 54, 9-{[2-(aminomethyl)-5-{4-[(4-methylpiperazin-1-yl)methyl]phenyl}-1H-indol-7-yl]methyl}-9H-purin-6-amine] and `Cc1ccc(-c2ccc(Cn3cnc4c(N)ncnc43)c3[nH]c(CN)cc23)cc1` [Example 75, 9-{[2-(aminomethyl)-4-(4-methylphenyl)-1H-indol-7-yl]methyl}-9H-purin-6-amine] are within 0.2 log units of each other in pIC50: 5.93 for the first, 6.05 for the second.

From US9932340B2, “Substituted indoles” (AbbVie Inc., priority 2014, dated 2018)
